Test results from PubChem BioAssay (NCI).
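Growth conditions: 96-well plates. Treatment: test compound, 48 hours, 5 concentrations. Analysis: linear interpolation between bracketing concentrations; unreached endpoints set to highest concentration. GI50 = concentration required for 50% inhibition of growth. The concentration for full growth arrest is given as TGI.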

Assays:
Assay in all cases: NCI anticancer screen, dose series, 48 h
UACC-257 melanoma = system: UACC-257 melanoma
UACC-62 melanoma = system: UACC-62 melanoma
NCI-H460 lung = system: NCI-H460 lung
SF-268 CNS = system: SF-268 CNS
DMS 273 small cell lung = system: DMS 273 small cell lung
M19-MEL melanoma = system: M19-MEL melanoma
MALME-3M melanoma = system: MALME-3M melanoma
HL-60(TB) leukemia = system: HL-60(TB) leukemia
MDA-MB-435 = system: MDA-MB-435
MCF7 breast = system: MCF7 breast

| SMILES | TGI (UACC-257 melanoma) [µM] | TGI (UACC-62 melanoma) [µM] | TGI (NCI-H460 lung) [µM] | TGI (SF-268 CNS) [µM] | TGI (DMS 273 small cell lung) [µM] | TGI (M19-MEL melanoma) [µM] | TGI (MALME-3M melanoma) [µM] | TGI (HL-60(TB) leukemia) [µM] | GI50 (HL-60(TB) leukemia) [µM] | GI50 (UACC-257 melanoma) [µM] | GI50 (UACC-62 melanoma) [µM] | GI50 (NCI-H460 lung) [µM] | GI50 (SF-268 CNS) [µM] | GI50 (MDA-MB-435) [µM] | TGI (MDA-MB-435) [µM] | GI50 (MCF7 breast) [µM] | TGI (MCF7 breast) [µM] | GI50 (MALME-3M melanoma) [µM] |
| --- | --- | --- | --- | --- | --- | --- | --- | --- | --- | --- | --- | --- | --- | --- | --- | --- | --- | --- |
| CCOC(=O)C(=O)Nc1cc(Cl)c(Cl)cc1Cl | > 100 | > 100 | > 100 | > 100 | > 100 | > 100 | > 100 |  |  |  |  |  |  |  |  |  |  |  |
| O=[P+](O)c1ccccn1 | > 100 | > 100 | > 100 | > 100 | > 100 | > 100 | > 100 | > 100 |  |  |  |  |  |  |  |  |  |  |
| CCCCCCCCCCCCCCCCCCNCc1ccc(Cl)cc1 | 36 | 15.5 | 4 | 18.2 |  |  | 22.6 | 3.94 | 1.55 | 18.6 | 4.02 | 2.05 | 3.82 | 3.45 | 15.6 | 2.93 | 11.5 | 7.37 |
| O=C(Nc1cccc(-n2cc(-c3ccncc3)c(-c3ccc(O)c(Cl)c3)n2)c1)c1ccc2c(c1)OCCO2 | > 100 | > 100 | > 100 | > 100 |  |  | > 100 | > 100 | 4.54 | > 100 | 7.96 | 6.2 | > 100 | > 100 | > 100 | 4.24 | > 100 | > 100 |
| O=C1/C=C/[C@@H](O)[C@@H]2C[C@@H](O)C[C@H]2/C=C/CCC[C@H](CCc2ccc3ncccc3c2)O1 | 5.95 | 8.44 | > 46.8 | > 100 |  |  | 0.678 | 0.691 | 0.268 | 0.13 | 0.303 | 0.36 | 0.322 | 0.318 | 13.3 | 0.27 | > 100 | 0.208 |
| S=c1o[nH]c(-c2ccccc2)c1C=Nc1ccccc1 | > 100 | > 100 | > 100 | > 100 | > 100 |  | > 100 | > 100 |  |  |  |  |  |  |  |  |  |  |
| COc1cccc(-c2nn(-c3ccccc3)cc2-c2ccnc(NCCCNC(=O)c3cccc(C(F)(F)F)c3)c2)c1 | 15.8 | 16.2 | 18.2 | 87.8 |  |  | 8.22 | 13.1 | 3.27 | 4.4 | 3.58 | 4.03 | 9.51 | 3.27 | 17.1 | 3.54 | 18.5 | 2.66 |
| Cc1ccccc1NC(=O)/C=N/O | > 100 | 27.9 |  | > 100 | > 100 | > 100 | > 100 | 48.5 |  |  |  |  |  |  |  |  |  |  |
| Cc1ccc(C(=O)c2sc3nc4c(cc3c2N)CCCC4)c(C)c1 | > 100 | > 100 | > 100 | > 100 |  |  | > 100 | > 38.8 | 0.263 | 0.539 | 0.256 | 0.348 | 0.787 | 0.0258 | 0.086 | 0.162 | > 100 | 0.0754 |
| CC1=C(/C=C/C(=O)CC(=O)/C=C/C2=C(C)CCCC2(C)C)C(C)(C)CCC1 | 63.5 | 44.7 | 82.1 | > 100 |  |  | > 100 | 24.2 | 5.42 | 20.6 | 19.1 | 18.6 | 18.2 | 38.1 | > 100 | 22.7 | 72.9 | 38.1 |
| CN(C)CCC(/C=C/c1ccccc1)=N\Nc1ccc(Cl)c(Cl)c1 | 9.77 | 7.25 | 4.25 | 8.81 | 6.42 | 15 | 32.8 | 7.31 |  |  |  |  |  |  |  |  |  |  |
| COC(=O)CCC(=O)N1C/C(=C\c2ccccc2)C(=O)/C(=C/c2ccccc2)C1 | 4.11 | 3.61 | 10.8 | 5.89 | 2.73 | 11.7 | 4.62 |  |  |  |  |  |  |  |  |  |  |  |
| Cc1coc2c1C(=O)C(=O)c1ccccc1-2 | 0.542 | 3.25 | 3.18 |  | 3.33 |  | 2.96 |  |  |  |  |  |  |  |  |  |  |  |
| Cc1cc(-c2nnc(/C=C/c3ccc4c(c3)OCO4)o2)n[nH]1 | > 50 | > 50 | > 50 | > 50 |  |  | > 50 | 3.99 | 1.34 | 23 | 15.3 | 15.1 | 6.5 | 0.915 | 2.52 | 15.1 | > 50 | 8.96 |
| O=C1CC[C@H](N2Cc3c(OCc4ccc(CN5CCOCC5)cc4)cccc3C2=O)C(=O)N1 | > 100 | > 100 | > 100 | > 100 |  |  | > 100 | > 100 | 77.6 | > 100 | > 100 | > 100 | > 100 | > 100 | > 100 | > 100 | > 100 | > 100 |
| O=C(O)c1cc2ccccc2c2c3c(ccc12)OCO3 | 600 | 279 | > 1000 | 580 |  |  | 361 | 440 | 172 | 220 | 116 | 265 | 188 | 172 | 519 | 227 | 895 | 140 |
| CCCCCCCCOCC(O)CO (centres undefined) | > 100 | > 100 | > 100 | > 100 | > 100 | > 100 | > 100 | > 100 |  |  |  |  |  |  |  |  |  |  |
| CC(C)(C)OP(=O)(OC(C)(C)C)C(O)c1ccc(/C=C(\C#N)C(N)=O)cc1 (centres undefined) | > 100 | > 100 | > 100 | > 100 | > 100 | > 100 | > 100 | > 100 |  |  |  |  |  |  |  |  |  |  |
